This note sets out measurements from paper PMC12321279, “Novel 4,5‐Dihydrothiazole‐Phenylpiperazine Derivatives: Synthesis, Docking Studies and Pharmacological Evaluation as Serotonergic Agents” (Chemmedchem, 2025).

The test system of data set [1] is mice. The data set is described as follows: DOI‐induced head‐twitch reaction (HTR). It counts as in vivo. The following applies: 30 mg kg^−1 i.p. 60 min before DOI, 20 min observation. The protocol:
(§1) The tests were performed on male white mice of the Albino Swiss strain, whose weight was between 24 and 30 g in Experimental Medicine Center, Medical University of Lublin, Poland. The animals were housed (four/five per cage). Before conducting the experimental tests, the animals were subjected to an adaptation that lasted seven days. This consisted of keeping them in a room with relatively constant conditions: a temperature of 22 ± 1 °C, a humidity of 55 ± 5% and lighting that mimicked the natural day and night rhythm (12 h/12 h). Constant access to food and water was provided. Standard feed—LSM Motycz pelleted feed—and tap water were used. Mice were randomly allocated to study groups. Each group was represented by 8–10 animals, depending on the research schedule. The experiments were performed according to the procedures set out in the regulations for animal experiments: National Institute of Health Guidelines for the Care and Use of Laboratory Animals (8th edition) and to the European Community Council Directive for the Care and Use of Laboratory Animals of 22 September 2010 (2010/63/EU). […]
Head‐twitch reaction (HTR) is a very characteristic behavior of the head. […] Then, after administration of the tested compounds, DOI was immediately observed for 20 min, and the number of HTR was counted. […]

In data set [2] the test system is larval zebrafish. The data set is described as follows: PTZ‐induced acute seizure assay in larval zebrafish. Type of data set: in vivo, zebrafish (Danio rerio). The following applies: 5 dpf larvae, 20 h incubation at maximum‐tolerated concentration (FG‐1 500 μM, FG‐18 25 μM), PTZ 20 mM, 30 min. On the procedure: (§2) All experiments were conducted on zebrafish (Danio rerio) larvae up to 5 days post fertilization (dpf), therefore, in accordance with current European legislation, ethical permission to conduct assays was not required. However, housing and experimental procedures were performed in compliance with the National Institute of Health Guidelines for the Care and Use of Laboratory Animals and the European Union Directive of 22 September 2010 (2010/63/EU) on protecting animals used for scientific purposes. All efforts were taken to minimize larvae stress and suffering. Larvae were euthanized with an overdose of tricaine ([…]). […] Before the respective behavioral tests were conducted, larvae at 4 dpf were incubated for 20 h in different arylpiperazine derivatives solutions of maximum‐tolerated concentrations (MCTs), determined during toxicological screening.^[ [30], [32] ^] […] Basic locomotor activity was measured using an automated tracking device, Daniovision by Noldus, and the total distance traveled was quantified using EthoVision XT software of the same company (Wageningen, the Netherlands) over a 30 min long observation period. […] The PTZ‐induced hyperlocomotion (acute seizure assay) was assessed in 5 dpf larval zebrafish (after 20 h incubation with tested derivatives at MCTs). […] Similarly, the data were recorded as the distance traveled (mm) by larvae when exposed to alternating lightning. […]

Data set [3] has as its system larval zebrafish. Kind of data set: Light–dark transition assay in larval zebrafish. Type of data set: in vivo, zebrafish (Danio rerio). The note with it: 5 dpf larvae, 20 h incubation at maximum‐tolerated concentration (FG‐1 500 μM, FG‐18 25 μM). On the procedure: as §2
Data set [4] has as its system mice. The data set is described as follows: Body temperature in normothermic mice. It counts as in vivo. The protocol: as §1, with “schedule.” for “schedule. The experiments were performed according to the procedures set out in the regulations for animal experiments: National Institute of Health Guidelines for the Care and Use of Laboratory Animals (8th edition) and to the European Community Council Directive for the Care and Use of Laboratory Animals of 22 September 2010 (2010/63/EU).”
Body temperature in normothermic mice was measured in the rectum of animals by thermistor thermometer till 120 min after tested compounds injection. […] The final temperature (tf) was measured 30, 60, 90, and 120 min after the injection of tested compounds. Body temperature changes (Δt) were calculated according to the formula: Δt = tf − ti.

Data set [5] deals with mice. Kind of data set: Spontaneous locomotor activity. It counts as in vivo. The following applies: 20 min observation. The protocol: The tests were performed on male white mice of the Albino Swiss strain, whose weight was between 24 and 30 g in Experimental Medicine Center, Medical University of Lublin, Poland. The animals were housed (four/five per cage). Before conducting the experimental tests, the animals were subjected to an adaptation that lasted seven days. This consisted of keeping them in a room with relatively constant conditions: a temperature of 22 ± 1 °C, a humidity of 55 ± 5% and lighting that mimicked the natural day and night rhythm (12 h/12 h). Constant access to food and water was provided. Standard feed—LSM Motycz pelleted feed—and tap water were used. Mice were randomly allocated to study groups. Each group was represented by 8–10 animals, depending on the research schedule. The experiments were performed according to the procedures set out in the regulations for animal experiments: National Institute of Health Guidelines for the Care and Use of Laboratory Animals (8th edition) and to the European Community Council Directive for the Care and Use of Laboratory Animals of 22 September 2010 (2010/63/EU). The study was approved by the Local Ethical Committee in Lublin (number of ethical approvals: 27/2023). Tested compounds: FG‐1, FG‐4, FG‐5, FG‐6, FG‐7, FG‐8, and FG‐18 were finely ground in mortars with the addition of the emulsifier Tween‐80. A suspension was obtained, which was then diluted with aqueous solution of 0.5% methylcellulose (tylose). The mixture was then administered intraperitoneally (i.p.) to the animals 60 min before the start of the experiments. Animals in the control groups received a 0.5% tylose solution. All substances were administered via the same route of administration in appropriate dose and volume of 0.1 mL per 10 g of animal body weight. Prior to the administration of the drug, the animals were weighed, during the interval between tests, they were provided with food, water, and constant living conditions.
An Opto‐Varimex‐4 Auto‐Track animal activity meter (Columbus Instruments, USA) was used to study animal movement, which consists of eight transparent cages with lids measuring 43 × 43 × 32 cm, a set of four infrared transmitters (each transmitter has 16 laser beams) and four detectors to monitor animal movements. Testing was initiated 60 min after compound administration. For the spontaneous locomotor activity study, tylose was administered to the control group and the tested compounds. For the amphetamine‐induced or MK‐801‐induced hyperactivity tests, tylose, the tested compounds and after 30 min, amphetamine (3 mg kg^−1) or MK‐801 (0.3 mg kg^−1) were administered. While the test was being performed, animals were individually caged, initially for 5 min of adaptation, followed by 20 min of actual mobility testing.

Setting [6] is: 15 mg kg^−1 i.p. 60 min before test.
Setting [7] is: 30 mg/kg i.p. 60 min before test.

`O=C(NCCCN1CCN(c2ccccc2C2=NCCS2)CC1)c1ccccn1` [FG‐1, N‐(3‐(4‐(2‐(4,5‐dihydrothiazol‐2‐yl) phenyl) piperazin‐1‐yl) propyl) picolinamide]: in data set [1], the “DOI‐induced HTR (number of head twitches)” value was “significant decrease in HTR”. The “distance traveled by PTZ‐exposed larvae (seizure‐like behavior)” value in data set [2] is “substantially decreased”. The “larval behavior under the dark conditions (light–dark transition)” value in data set [3] is on record as “influenced larval behavior under the dark conditions”.
In the case of `O=C(NCCCN1CCN(c2cccc(C3=NCCS3)c2)CC1)c1ccncc1` [FG‐5, N‐(3‐(4‐(3‐(4,5‐dihydrothiazol‐2‐yl) phenyl) piperazin‐1‐yl) propyl) isonicotinamide], in data set [4] (30 mg kg^−1 i.p., from 30 to 90 min), the “body temperature of normothermic mice” value is reported as “significant decrease in the body temperature”.
Regarding `O=C(NCCCN1CCN(c2ccc(C3=NCCS3)cc2)CC1)c1ccncc1` [FG‐6, N‐(3‐(4‐(4‐(4,5‐dihydrothiazol‐2‐yl) phenyl) piperazin‐1‐yl) propyl) isonicotinamide], the spontaneous locomotor activity result is recorded as “did not change the motility of mice” in data set [5] (setting [6]) and “significant decrease in spontaneous locomotor activity” in data set [5] (setting [7]). Moreover, the “body temperature of normothermic mice” value in data set [4] (15 mg kg^−1 i.p., from 30 to 90 min and also in 120 min) is given as “significant decrease in the body temperature”.
`O=C1C2C3C=CC(C3)C2C(=O)N1OCCCN1CCN(c2ccccc2C2=NCCS2)CC1` (stereo not drawn) [FG‐7, 2‐(3‐(4‐(2‐(4,5‐dihydrothiazol‐2‐yl) phenyl) piperazin‐1‐yl) propoxy)‐3a,4,7,7a‐tetrahydro‐1 H‐4,7‐methanoisoindole‐1,3(2 H)‐dione]: the values for the spontaneous locomotor activity result in data set [5] (setting [6]) and in data set [5] (setting [7]) were “did not change the motility of mice” and “significant decrease in spontaneous locomotor activity”, respectively.
On to `O=C(NCCCN1CCN(c2ccc(C3=NCCS3)cc2)CC1)C1CC2C=CC1C2` (stereo not drawn) [FG‐18, Endo‐ N‐(3‐(4‐(4‐(4,5‐dihydrothiazol‐2‐yl)phenyl)piperazin‐1‐yl)propyl) bicyclo[2.2.1]hept‐5‐ene‐2‐carboxamide], for which, in data set [1], the “DOI‐induced HTR (number of head twitches)” value is recorded as “significant decrease in HTR”. Also, the “distance traveled by PTZ‐exposed larvae (seizure‐like behavior)” value in data set [2] is reported as “significantly increased the distance traveled”. Moreover, in data set [3], the “larval behavior under the dark conditions (light–dark transition)” value is “influenced larval behavior under the dark conditions”.
